{
  "source": "paper PMC6368365",
  "about": "“Didehydro-Cortistatin A Inhibits HIV-1 by Specifically Binding to the Unstructured Basic Region of Tat” (mBio, 2019)",
  "key": {"[1]": {"tested_on": "NL4-3 strain", "test": "HIV-1 NL4-3 infection of HeLa-CD4-LTR-LacZ reporter cells, LacZ measured 72 h later", "format": "cell-based", "conditions": "Human immunodeficiency virus 1, NL43; HeLa-CD4-LTR-LacZ cells infected with NL4-3, LacZ at 72 h; mean ± SD, n = 2 to 3; read-out: IC50", "source_text": "To understand the structure-function relationship of the dCA molecule with respect to our structural model, we synthesized and characterized the ability of 11 analogs of dCA to inhibit HIV infection (Table 2). […] We used HeLa-CD4 cells stably expressing the HIV-1 5′ LTR driving β-galactosidase production (HeLa-CD4-LTR-LacZ cells) as a reporter for the infection with isolate NL4-3. Table 2 summarizes the IC50, 50% cytotoxic concentration (CC50), and therapeutic index (TI) for each compound. The loss of dCA activity was directly associated with the positioning and the chemical environment of the azote on the F ring and the presence of oxygen in ring B. Moreover, the E-F “skeleton angle” and the distance between the A-B-C-D and F rings affected the activity by more than 50-fold (analogs 7 and 10).\nThe activity of Tat in HeLa-CD4-LTR-Luc and OM10.1 cells was verified by a transactivation assay as described in reference. In HeLa-CD4-LTR-LacZ cells, the assay was performed as described in reference. A detailed protocol is provided in Text S1.\nTransactivation assay. In HeLa-CD4-LTR-Luc cells and OM10.1 cells. The activity of Tat was verified by a transactivation assay as previously reported (13). Briefly, HeLa-CD4-LTR-Luc cells and OM10.1 were plated at 1×10^5 and 8x10^5 cells per well of a 6-well plate respectively. The following day, recombinant Tat protein was added to the cells in culture media without serum and in the presence of 100 μM of Chloroquine. Five hours later, serum was added at 5 % to the culture media. Cells were lysed 24 hrs later, protein concentration determined by Bradford assay and luciferase activity was measured for HeLa-CD4-LTR-Luc cells. Results corresponding to luciferase activity per protein concentration of each sample are shown as relative light unit (RLU). As for the OM10.1 cells, RNA was extracted using the RNA extraction kit (Qiagen) and DNA contamination was removed using Turbo-DNAse kit (Ambion). First-strand cDNA was synthesized using SuperscriptIII^TM first-strand cDNA kit (Invitrogen) and random hexamers as first-strand primers. qRT-PCR was performed with an aliquot of cDNA as template, using LightCycler? 480 SYBR Green I Master in a 20 µL reaction according to the manufacturer’s instructions. The mRNAs from each sample were used as negative control. Primer sequences for GAPDH (13) and all viral mRNAs as previously described (59). In HeLa-CD4-LTR-LacZ cells. It was performed as previously described (10). Briefly, cells were plated at 1×10^4 cells per well of a 96-well plate. Twenty-four hrs later HIV-1 NL4-3 strain was added in the presence of testing compound or DMSO. Seventy-two hrs post infection, cells were disrupted in lysis buffer (60 mM Na2HPO4, 40 mM NaH2PO4, 10 mM KCl, 10 mM MgSO4, 2.5 mM EDTA, 50 mM ß-mercaptoethanol, 0.125 % Nonidet P-40) and a quantitative chlorophenol red-ß-D-galactopyranoside (CPRG)-based (Boehringer Mannheim) assay was performed. The cell extracts were incubated in a reaction buffer (0.9 M phosphate buffer [pH 7.4], 9 mM MgCl2, 11 mM ß-mercaptoethanol, 7 mM CPRG) until a red color developed and measured with an LP400 (Becton Dickinson) plate reader at 572 nm."}, "[2]": {"test": "MTT viability assay, 72 h", "format": "cell-based", "conditions": "human, HeLa-CD4-LTR-LacZ cells, mean ± SD, n = 2 to 3", "procedure": "The assay was performed with MTT [3-(4,5-dimethyl-2-thiazolyl)-2,5-diphenyl-2H-tetrazolium bromide] as described in reference."}, "[3]": {"tested_on": "CA-sensitive AML cell lines", "parameters": "method as in PMID 16522087, PMID 17765550, PMID 26416749", "conditions": "read-out: IC50, antileukemic activity; cited from earlier work"}, "[4]": {"tested_on": "human umbilical vein endothelial cells (HUVECs)", "parameters": "method as in PMID 16522087, PMID 17765550, PMID 26416749", "conditions": "read-out: EC50, antiproliferative; cited from earlier work"}, "[5]": {"molecular_target": "T1, Pep B-TAR interaction (Human immunodeficiency virus type 1 group M subtype B, UniProt P20879)", "T1 construct": "Pep B is a peptide encompassing the basic domain of HIV Tat (^45ISYGRKKRRQRRRAP^59)", "test": "EMSA of Tat's basic peptide (Pep B) with TAR", "format": "biochemical, HIV-1", "conditions": "Tat basic peptide residues 45 to 59", "source_text": "FIG 6 dCA binding to Tat disrupts Tat-TAR interaction. (A) EMSA of full-length Tat with TAR in the presence of dCA. Raltegravir (Ralt.) and deleted bulge TAR (ΔTAR) were used as negative controls. Data are representative of n = 3 independent experiments. (B) EMSA of Tat’s basic domain with TAR in the presence of increasing concentrations of dCA to Tat’s basic peptide. Pep B is a peptide encompassing the basic domain of HIV Tat (^45ISYGRKKRRQRRRAP^59). Pep C (^69LSKQPASQPRGDPTG^83) and unlabeled or cold TAR (TARc) were used as negative controls. Neomycin, which binds to Tat and TAR, was used as a positive control. Ratios of compounds (or TARc) concentrations to peptide are shown. Data are representative of n = 3 independent experiments. […] Shown are ITC results from binding of dCA (left) or Tat peptide (right) to TAR at 25°C. […] For the lower plots, results were converted to molar heats and plotted against the molar ratio of dCA or peptide to RNA. Data are representative of n = 2 independent experiments. (D) Tat-TAR interaction blocked by dCA in HeLa-CD4-LTR-Luc cells in vivo. Cells transfected with Tat or Tat Mut (arginine residues mutated to alanine in Tat’s basic domain) were incubated with DMSO or the indicated compounds (25 nM). Forty-eight hours later, cells were either lysed to determine the luciferase activity or cross-linked for ChIP assays. Luciferase activity was determined relative to protein concentration (Bradford assay) (Fig. S9A). Western blotting was performed to verify the amount of Tat under each condition (Fig. S9B). ChIP of Tat was followed by qRT-PCR of TAR DNA. The results are presented as percentage of input. The mean ± SEM is represented. Data are representative of n = 3 independent experiments. Statistical significance was determined using one-way ANOVA with post hoc Tukey’s test with 3 technical replicates. ns, not significant; ***, P < 0.0001.\nWe also performed the same experiment with a peptide encompassing the basic domain of Tat (Pep B; residues 45 to 59) and dCA.\nEMSA With full-length Tat: similar protocol was performed as in Das et al. (60). […]"}, "[6]": {"molecular_target": "T2, intracellular Tat (Human immunodeficiency virus type 1 group M subtype B, UniProt P69697)", "T2 construct": "pTatC6H-1 (NIH AIDS Reagent Program) plasmid encoding C-terminal 6xHistidine Tat1-86 (HXB3, subtype B); made in house; host or cells: E. coli BL21 (plasmid pTatC6H-1, NIH AIDS Reagent Program)", "T2 sequence (P69697 whole entry)": "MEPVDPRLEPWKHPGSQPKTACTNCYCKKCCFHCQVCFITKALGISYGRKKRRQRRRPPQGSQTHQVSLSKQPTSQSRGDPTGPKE", "test": "Steady state of recombinant Tat in HeLa-CD4-LTR-Luc cells (Western blot)", "format": "cell-based, HIV-1", "conditions": "6 hours with compound, MG132 10 μM", "procedure": "FIG 5 dCA stabilizes Tat structure. (A) Trp fluorescence assays. (Left) Schematic of the assay. (Center) DMSO, dCA (7.5× Tat concentration) or raltegravir (Ralt.; 7.5× Tat concentration) was incubated with Tat. The fluorescence of the Trp^11 of Tat protein was measured at the indicated wavelengths. Acrylamide (250 mM) was used as a quenching control of Tat fluorescence. (Right) Peak absorbance (λmax) versus increasing fold ratios of compounds to Tat protein. Data are representative of n = 3 independent experiments. (B) DARTS assays. Tat was incubated with DMSO or dCA, at increasing concentrations, in the presence of increasing concentrations of proteinase K (PK). […] Data are representative of n = 2 independent experiments. (C) Steady state of Tat in the presence of dCA in vivo. HeLa-CD4-LTR-Luc cells were incubated with recombinant Tat and then washed and incubated with the indicated compounds for 6 hours. […] (Left) Western blot representative of n = 4 independent experiments. MG132 was used as a positive control of Tat protection from degradation, and raltegravir was used as a negative control. (Right) Densitometry of the Tat band normalized to the actin band. Results represent the mean ± SEM from n = 4 independent experiments. Statistical significance was determined using one-way ANOVA with post hoc Tukey’s test. ns, not significant; ***, P < 0.0001; **, P < 0.001.\nNext, we determined the half-life of recombinant Tat in HeLa-CD4-LTR-Luc cells in the presence of dCA (Fig. 5C). We incubated recombinant Tat with cells for 4 hours, and after several washes to remove extracellular Tat protein, we incubated cells with DMSO, dCA, or raltegravir for an additional 6 hours. Western blotting with anti-His antibody was performed to reveal intracellular Tat. […]\nHalf-life of Tat in vivo. […] Total protein concentration was assessed by Bradford assay and Tat protein in each condition determined by western blot with an anti-His antibody at 1:1500 dilution (Thermofisher). […]"}},
  "note": "Peptide text beside a SMILES is read from it. * marks the point of attachment. Cbz = O=C(OCc1ccccc1)*",
  "data": [
    {"molecule": "CC12CC=C3C=C4C(O)C(O)C(N)CC45CCC3(O5)C1CC=C2c1ccc2ccncc2c1", "note": "(centres unmarked) [# 4]", "values": [
      {"measurement": "IC50", "setting": "[1]", "value": "4 ± 0.5", "unit": "nM"},
      {"measurement": "CC50 at 72 h", "setting": "[2]", "value": "23100 ± 300", "unit": "nM"}
    ]},
    {"molecule": "CN(C)C1CC23CCC4(O2)C(=CCC2(C)C(c5ccc6ccncc6c5)C(=O)CC42)C=C3C(O)C1O", "note": "(centres unmarked) [# 9]", "values": [
      {"measurement": "IC50", "setting": "[1]", "value": "0.5 ± 0.1", "unit": "nM"},
      {"measurement": "CC50 at 72 h", "setting": "[2]", "value": "> 50000", "unit": "nM"}
    ]},
    {"molecule": "Cc1n[nH]c2cc(C3=CCC4C3(C)CC=C3C=C5C(O)C(O)C(N(C)C)CC56CCC34O6)ccc12", "note": "(centres unmarked) [# 6]", "values": [
      {"measurement": "IC50", "setting": "[1]", "value": "67.5 ± 6.8", "unit": "nM"},
      {"measurement": "CC50 at 72 h", "setting": "[2]", "value": "12100 ± 800", "unit": "nM"}
    ]},
    {"molecule": "CN(C)C1CC23CCC4(O2)C(=CCC2(C)C(c5ccc6cnncc6c5)=CCC24)C=C3C(O)C1O", "note": "(centres unmarked) [# 5]", "values": [
      {"measurement": "IC50", "setting": "[1]", "value": 141, "unit": "nM"},
      {"measurement": "CC50 at 72 h", "setting": "[2]", "value": 16400, "unit": "nM"}
    ]},
    {"molecule": "CN(C)[C@H]1C[C@@]23CC[C@@]4(O2)C(=CC[C@]2(C)[C@@H](c5ccc6ccncc6c5)CC[C@H]24)C=C3[C@@H](O)[C@@H]1O", "note": "[CA, cortistatin A]", "values": [
      {"measurement": "IC50", "setting": "[3]", "value": "~10", "unit": "nM"},
      {"measurement": "EC50", "setting": "[4]", "value": 350, "unit": "nM"}
    ]},
    {"molecule": "neomycin", "values": [
      {"measurement": "inhibition of Pep B-TAR interaction (EMSA)", "setting": "[5]", "value": "inhibited the interaction of Pep B with TAR"}
    ]},
    {"molecule": "CC(C)C[C@@H](C=O)NC(=O)[C@H](CC(C)C)NC(=O)[C@H](CC(C)C)NC(=O)OCc1ccccc1", "note": "[MG132] (Cbz-Leu-Leu-Leu-aldehyde)", "values": [
      {"measurement": "percentage of remaining Tat", "setting": "[6]", "value": 40, "unit": "%"}
    ]},
    {"molecule": "CC(=O)N(C)C1CC23CCC4(O2)C(=CCC2(C)C(c5ccc6ccncc6c5)=CCC24)C=C3C(O)C1O", "note": "(centres unmarked) [# 3]", "values": [
      {"measurement": "IC50", "setting": "[1]", "value": "37 ± 5.8", "unit": "nM"},
      {"measurement": "CC50 at 72 h", "setting": "[2]", "value": 5600, "unit": "nM"}
    ]}
  ]
}
